According to patent US20200397784A1 (priority 2019, published 2020):
Where two headings read alike, the source gives them in different places. Marks after values point to notes of the source that are not given here.

Columns and labels:
A/Puerto Rico/8/34 [1] = type: cell-based, influenza A virus
A/Puerto Rico/8/34 [2] = system: A/Puerto Rico/8/34
[3] = system: influenza virus A/PR/8/34; experiment: Mouse influenza A model, Compound (1) with or without Oseltamivir, treatment +48 h; type: in vivo, Balb/c mice
[4] = system: influenza virus B/Mass/3/66; experiment: Mouse influenza B model, Compound (1) with or without Oseltamivir; type: in vivo, Balb/c mice
influenza A = experiment: Mouse influenza A model: lung viral titer; type: in vivo, mice; settings: study day 6
Experimental: The effectiveness of Compound (1) to reduce lung viral titers was investigated. Mice were infected with influenza A and 24 h later vehicle, oseltamivir (10 mg/kg BID) or Compound (1) (3, 10, 30 mg/kg BID) was administered until lung harvest and viral burden determination on day 6 (Table 27).

[5] = system: Influenza A/Victoria/3/75 (H3N2) virus; type: in vivo, BALB/c mice
[6] = system: Influenza A/California/04/2009 (pndH1N1) virus; type: in vivo; settings: pndH1N1 BALB/c mice
influenza A virus = type: in vivo, mice
[7] = system: Influenza A/Vietnam/1203/2004 (H5N1) virus; type: in vivo, BALB/c mice; settings: treatment +48 h
influenza A/PR/8/34 = experiment: Mouse influenza A model, combination of Compound (1) with zanamivir; type: in vivo; settings: A/PR/8/34 mice, no Compound (1)
Experimental: Infected mice were treated with vehicle or escalating dose levels of Form A of the Compound (1) HCl hemihydrate salt Form A (hereinafter in this example simply Compound (1)) in combination with zanamivir starting 24 hours prior to influenza A challenge with 5×10^3 TCID50 A/PR/8/34. The influenza A challenge and Compound (1) suspensions were prepared in a similar manner as described above in Example 8. The challenged mice were treated once IN (intranasal) with zanamivir at 0.3 mg/kg, 1 mg/kg or 3 mg/kg 24 hours prior to IN challenge with 5×10^3 TCID50 A/PR/8/34, and with Compound (1) at 0.1 mg/kg, 0.3 mg/kg, or 1 mg/kg BID for 10 days starting −2 hours prior to the challenge with 5×10^3 TCID50 A/PR/8/34.
Efficiency quotient, a composite measure of survival, bodyweight loss and lung function (% survival/(% body weight loss at Day 8)*(Penh at Day 6)) is summarized in Table 24B.

[8] = influenza A/PR/8/34 mice, Oseltamivir 10 mg/kg PO BID 10 days alone, from +48 h
[9] = influenza B/Mass/3/66 mice, Oseltamivir 10 mg/kg PO BID 10 days alone
[10] = 10 mg/kg twice a day for 10 days starting 2 hours prior to virus exposure
[11] = 10 mg/kg twice a day, prophylaxis
[12] = Oseltamivir 10 mg/kg BID prophylaxis
[13] = treatment start +24 h, 10 mg/kg BID
[14] = treatment start +48 h, 10 mg/kg BID
[15] = treatment start +72 h, 10 mg/kg BID
[16] = 10 mg/kg twice a day for 10 days

CCC(CC)O[C@@H]1C=C(C(=O)O)C[C@H](N)[C@H]1NC(C)=O [oseltamivir carboxylate]
synergy volume (A/Puerto Rico/8/34 [1]; in combination with Compound (1), Bliss independence method, […]): 312

NC(=O)c1nc(F)c[nH]c1=O [favipiravir]
C.I. (combination index) (A/Puerto Rico/8/34 [2]): 0.89
synergy volume (A/Puerto Rico/8/34 [1]): 317

CCOC(=O)C1=C[C@@H](OC(CC)CC)[C@H](NC(C)=O)[C@@H](N)C1 [Oseltamivir, oseltamivir]
protection from death, BW loss, lung function ([3]; Oseltamivir 10 mg/kg alone, +48 hours post influenza A infection): did not protect from death
Penh (Day 3) [3, 8]: 2.36
Survival (21 days) [3, 8]: 0%
Weight Loss (Day 8) [3, 8]: 32.0%
protection from death, BW loss, lung function ([4]; Oseltamivir 10 mg/kg alone, 2 hours prior to influenza B infection): complete protection from death
Penh (Day 6/7) [4, 9]: 1.08
Survival (21 days) [4, 9]: 100%
Weight Loss (Day 8) [4, 9]: 12.8%
C.I. (combination index) (A/Puerto Rico/8/34 [2]): 0.58
Lung Viral Titer (influenza A; Study 1, 10 mg/kg BID from 24 h post infection for 5 days): 6.05 Log10 TCID50
Log10 Reduction vs. Vehicle (influenza A; Study 1, 10 mg/kg BID from 24 h post infection): −0.15 Log10
MDD ± SD (mean day of death of mice that died on or before day 21) [5, 10]: 7.0 days
Survivors/Total [5, 10]: 9/10***
Mean Lung Parameters (Day 6): Virus Titer [5, 11]: 7.0 ± 0.3 Log10 CCID50/g
Mean Lung Parameters (Day 6): Weight [5, 11]: 218 ± 24 mg
Mean Lung Parameters (Day 6): Score ([5]; 10 mg/kg twice a day, prophylaxis, lung hemorrhage score 0-4): 1.7 ± 1.1
Mean Lung Parameters (Day 6): Virus Titer [6, 12]: 7.9 ± 0.2 Log10 CCID50/g
Mean Lung Parameters (Day 6): Weight [6, 12]: 178 ± 28 mg
Mean Lung Parameters (Day 6): Score ([6]; Oseltamivir 10 mg/kg BID prophylaxis, hemorrhage score 0-4): 1.0 ± 0.0^e
Survivors/Total ([6]; Oseltamivir 10 mg/kg twice a day for 10 days starting 2 hours prior to virus exposure): 10/10***
survival (influenza A virus; mouse influenza A model, oseltamivir 10 mg/kg BID, same experiment): All of the oseltamivir-administered mice survived
protection with delayed dosing (influenza A virus; mouse, in vivo): only provided complete protection when dosing was initiated 24 h or less
survival (influenza A virus; mouse, in vivo): All of the oseltamivir-administered mice survived
Percent Survival (influenza A virus; mouse, in vivo, 10 mg/kg): 100%
Percent Body Weight Loss on Study Day 8 (influenza A virus; [13]): −28.9%
Percent Survival (influenza A virus; [13]): 100%
Percent Body Weight Loss on Study Day 8 (influenza A virus; [14]): −31.1%
Percent Survival (influenza A virus; [14]): 80%
Percent Body Weight Loss on Study Day 8 (influenza A virus; [15]): −31.3%
Percent Survival (influenza A virus; [15]): 0%
Percent Body Weight Loss on Study Day 8 (influenza A virus; treatment start −2 h, 10 mg/kg BID): −19.1%
MDD ± SD (mean day of death of mice that died on or before day 21) [7, 16]: 9.5 ± 1.2 days
Survivors/Total [7, 16]: 0/10
Mean Lung Parameters (Day 6): Virus Titer ([7]; 10 mg/kg twice a day): 5.22 ± 0.38 Log10 CCID50/g

CC(=O)N[C@H]1[C@H]([C@H](O)[C@H](O)CO)OC(C(=O)O)=C[C@@H]1N=C(N)N [Zanamivir, zanamivir]
C.I. (combination index) (A/Puerto Rico/8/34 [2]): 0.64
Survival Rate (influenza A/PR/8/34; Zanamivir 0.3 mg/kg IN x 1, 24 h prior to infection): 37.5
Efficiency Quotient (% survival/(% body weight loss at Day 8)*(Penh at Day 6)) (influenza A/PR/8/34; Zanamivir 0.3 mg/kg IN x 1): 0.44
Survival Rate (influenza A/PR/8/34; Zanamivir 1 mg/kg IN x 1, 24 h prior to infection): 50
Efficiency Quotient (% survival/(% body weight loss at Day 8)*(Penh at Day 6)) (influenza A/PR/8/34; Zanamivir 1 mg/kg IN x 1): 0.73
Survival Rate (influenza A/PR/8/34; Zanamivir 3 mg/kg IN x 1, 24 h prior to infection): 62.5
Efficiency Quotient (% survival/(% body weight loss at Day 8)*(Penh at Day 6)) (influenza A/PR/8/34; Zanamivir 3 mg/kg IN x 1): 0.73
synergy volume (A/Puerto Rico/8/34 [1]): 268
